Source: patent US10195185B2, “3-(1H-imidazo[4,5-C]pyridin-2-yl)-1H-pyrazolo[4,3-B]pyridines and therapeutic uses thereof” (Samumed, LLC, priority 2015, dated 2019)

How the values were obtained:
[1] = system: IL-6 in human monocyte cell line (THP-1 cells); assay: IL-6 inhibition in LPS-stimulated THP-1 cells (HTRF); type: cell-based; conditions: IL-6 in LPS-stimulated THP-1 cells; for EC50: HTRF; for inhibition at 10 µM: read-out: percent inhibition in brackets beside EC50 >10 μM
How it was run: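 THP-1 cells, serum-reduced (1% FBS) for 24 h, were preincubated with compound (10-point 1:3 series from 10 μM, 0.1% DMSO) for 2 h, then stimulated with 500 ng/mL LPS for 22 h at 37° C. IL-6 was read by HTRF (665/620 nm ratio) and normalized to DMSO. EC50 from four-parameter fit; % inhibition at 10 μM given if EC50 >10 μM.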

[2] = system: primary human mesenchymal stem cells (hMSCs); assay: Induction of chondrogenesis in hMSCs (nodule area, Rhodamine B / Nile Red); type: cell-based; conditions: TGF-β3 as positive control; for Emax: read-out: Max. Activity as % TGF-β3 activity; for EC50: concentration required to induce 50% levels of chondrogenesis, read-out: Conc (nM) of 50% TGF-β3 activity
Method: Representative compounds were screened using primary human mesenchymal stem cells (hMSCs) to determine their ability to induce chondrogenesis (process by which cartilage is developed).
Primary human mesenchymal stem cells (hMSCs) were purchased from Lonza (Walkersville, Md.) and expanded in Mesenchymal Stem Cell Growth Media (Lonza). Cells between passage 3 and 6 were used for the experiments.
Each compound was dissolved in DMSO as a 10 mM stock and used to prepare compound source plates. For the 96 well assay, serial dilution (1:3, 6-point dose-response curves from 2700 nM to 10 nM) and compound transfer was performed using the ECHO 550 (Labcyte, Sunnyvale, Calif.) into 96-well clear bottom assay plates (Greiner Bio-One) with appropriate DMSO backfill for a final DMSO concentration of 0.03%. hMSCs were plated at 20,000 cells/well in 250 μL/well Incomplete Chondrogenic Induction Medium (Lonza; DMEM, dexamethasone, ascorbate, insulin-transferrin-selenium [ITS supplement], gentamycin-amphotericin [GA-1000], sodium pyruvate, proline and L-glutamine). TGF-β3 (10 ng/mL) was used as a positive control for differentiation while negative control wells were treated with 75 nL DMSO for normalization and calculating EC50 values. For the 384 well assay, serial dilution (1:3, 8-point dose-response curves from 5000 nM to 2.2 nM) and compound transfer was performed using the ECHO 550 (Labcyte, Sunnyvale, Calif.) into 384-well clear bottom assay plates (Greiner Bio-One) with appropriate DMSO backfill for a final DMSO concentration of 0.03%. hMSCs were plated at 8,000 cells/well in 80 μL/well Incomplete Chondrogenic Induction Medium (Lonza; DMEM, dexamethasone, ascorbate, insulin-transferrin-selenium [ITS supplement], gentamycin-amphotericin [GA-1000], sodium pyruvate, proline and L-glutamine). TGF-β3 (10 ng/mL) was used as a positive control for differentiation while negative control wells were treated with 25 nL DMSO for normalization and calculating EC50 values. Cells were incubated at 37° C. and 5% CO2 for 6 days. To image chondrogenic nodules, the cells were fixed using 4% formaldehyde (Electron Microscopy Sciences), and stained with 2 μg/mL Rhodamine B (Sigma-Aldrich) and 20 μM Nile Red (Sigma-Aldrich) [Johnson K., et. al, A Stem Cell-Based Approach to Cartilage Repair, Science, (2012), 336(6082), 717-721]. The nodules imaged (25 images per well for 96 well plates and 9 images per well for 384 well plates at 10× magnification) by excitation at 531 nm and emission at 625 nm and quantified using the CellInsight CX5 (Thermo Scientific). Area of nodules in each well was normalized to the average of 3 DMSO treated wells on the same plate using Excel (Microsoft Inc.). The normalized averages (fold change over DMSO) of 2 or 3 replicate wells for each compound concentration were calculated. Due to solubility limitations of some of the compounds, curve fitting was incomplete leading to inaccurate EC50 determinations.
Using TGF-β3 as a positive control, the concentration of representative compounds required to induce 50% levels of chondrogenesis is reported. In addition, the maximum activity of each compound and the respective dose that each compound reached maximum chondrogenesis activity is reported.

Row | Structure (SMILES) | EC50 [1] [nM] | EC50 [2] [nM] | inhibition at 10 µM [1] [%] | Emax [2] [%]
1 | Fc1cccc(-c2nccc3[nH]c(-c4n[nH]c5ccc(-c6cncc(CN7CCC(F)(F)C7)c6)nc45)nc23)c1 [Compound 26, 5-(5-((3,3-Difluoropyrrolidin-1-yl)methyl)pyridin-3-yl)-3-(4-(3-fluorophenyl)-1H-imidazo[4,5-c]pyridin-2-yl)-1H-pyrazolo[4,3-b]pyridine] | > 10000 | 30 | 0 | 58
2 | O=C(Nc1cncc(-c2ccc3[nH]nc(-c4nc5c(-c6ccc(Cl)s6)nccc5[nH]4)c3n2)c1)C1CCC1 [Compound 1056, N-(5-(3-(4-(5-Chlorothiophen-2-yl)-1H-imidazo[4,5-c]pyridin-2-yl)-1H-pyrazolo[4,3-b]pyridin-5-yl)pyridin-3-yl)cyclobutanecarboxamide] | > 10000 | 30 | 0 | 60
3 | Fc1ccc(-c2nccc3[nH]c(-c4n[nH]c5ccc(-c6cncnc6)nc45)nc23)cc1 [Compound 55, 3-(4-(4-Fluorophenyl)-1H-imidazo[4,5-c]pyridin-2-yl)-5-(pyrimidin-5-yl)-1H-pyrazolo[4,3-b]pyridine] | > 10000 | 900 | 27.3 | 139
4 | O=C(Nc1cncc(-c2ccc3[nH]nc(-c4nc5c(-c6ccc(F)cc6)nccc5[nH]4)c3n2)c1)C1CCC1 [Compound 49, N-(5-(3-(4-(4-Fluorophenyl)-1H-imidazo[4,5-c]pyridin-2-yl)-1H-pyrazolo [4,3-b]pyridin-5-yl)pyridin-3-yl)cyclobutanecarboxamide] | > 10000 | – | 0 | 45
5 | Cc1ccncc1-c1ccc2[nH]nc(-c3nc4c(-c5ccsc5)nccc4[nH]3)c2n1 [Compound 285, 5-(4-Methylpyridin-3-yl)-3-(4-(thiophen-3-yl)-1H-imidazo[4,5-c]pyridin-2-yl)-1H-pyrazolo[4,3-b]pyridine] | 1340 | – | – | 47
6 | CCCCC(=O)Nc1cncc(-c2ccc3[nH]nc(-c4nc5c(-c6ccccn6)nccc5[nH]4)c3n2)c1 [Compound 159, N-(5-(3-(4-(Pyridin-2-yl)-1H-imidazo[4,5-c]pyridin-2-yl)-1H-pyrazolo[4,3-b]pyridin-5-yl)pyridin-3-yl)pentanamide] | > 10000 | 10 | 28.2 | 113
7 | Fc1ccc(-c2nccc3[nH]c(-c4n[nH]c5ccc(-c6cncc(CN7CCCC7)c6)nc45)nc23)cc1 [Compound 42, 3-(4-(4-Fluorophenyl)-1H-imidazo[4,5-c]pyridin-2-yl)-5-(5-(pyrrolidin-1-ylmethyl)pyridin-3-yl)-1H-pyrazolo[4,3-b]pyridine] | > 10000 | – | 23.3 | 39
8 | c1cncc(-c2ccc3[nH]nc(-c4nc5cnccc5[nH]4)c3n2)c1 [Compound 256, 3-(1H-Imidazo[4,5-c]pyridin-2-yl)-5-(pyridin-3-yl)-1H-pyrazolo[4,3-b]pyridine] | > 10000 | 30 | 35.5 | 55

Second part, led by results:

Row | EC50 [1] [nM] | EC50 [2] [nM] | Structure (SMILES) | inhibition at 10 µM [1] [%] | Emax [2] [%]
9 | > 10000 | 30 | CCC(=O)Nc1cncc(-c2ccc3[nH]nc(-c4nc5c(N6CCCCC6)nccc5[nH]4)c3n2)c1 [Compound 169, N-(5-(3-(4-(Piperidin-1-yl)-1H-imidazo[4,5-c]pyridin-2-yl)-1H-pyrazolo [4,3-b]pyridin-5-yl)pyridin-3-yl)propionamide] | 42.6 | 69
10 | > 10000 | – | CN(C)Cc1cncc(-c2ccc3[nH]nc(-c4nc5c(N6CCCCC6)nccc5[nH]4)c3n2)c1 [Compound 181, N,N-Dimethyl-1-(5-(3-(4-(piperidin-1-yl)-1H-imidazo[4,5-c]pyridin-2-yl)-1H-pyrazolo [4,3-b]pyridin-5-yl)pyridin-3-yl)methanamine] | 36.5 | 43
11 | > 10000 | – | CCNCc1cncc(-c2ccc3[nH]nc(-c4nc5c(-c6ccccn6)nccc5[nH]4)c3n2)c1 [Compound 146, N-((5-(3-(4-(Pyridin-2-yl)-1H-imidazo[4,5-c]pyridin-2-yl)-1H-pyrazolo[4,3-b]pyridin-5-yl)pyridin-3-yl)methyl)ethanamine] | 6.7 | 28
12 | > 10000 | – | Cc1cn(-c2nccc3[nH]c(-c4n[nH]c5ccc(-c6cncc(CN7CCCC7)c6)nc45)nc23)cn1 [Compound 210, 3-(4-(4-Methyl-1H-imidazol-1-yl)-1H-imidazo[4,5-c]pyridin-2-yl)-5-(5-(pyrrolidin-1-ylmethyl)pyridin-3-yl)-1H-pyrazolo [4,3-b]pyridine] | 24.5 | 50
13 | > 10000 | 10 | CC(C)(C)C(=O)Nc1cncc(-c2ccc3[nH]nc(-c4nc5c(-c6ccc(Cl)s6)nccc5[nH]4)c3n2)c1 [Compound 1043, N-(5-(3-(4-(5-Chlorothiophen-2-yl)-1H-imidazo[4,5-c]pyridin-2-yl)-1H-pyrazolo[4,3-b]pyridin-5-yl)pyridin-3-yl)pivalamide] | 0 | 67
14 | > 10000 | 10 | CC(C)CC(=O)Nc1cncc(-c2ccc3[nH]nc(-c4nc5c(-c6ccc(Cl)s6)nccc5[nH]4)c3n2)c1 [Compound 1037, N-(5-(3-(4-(5-Chlorothiophen-2-yl)-1H-imidazo[4,5-c]pyridin-2-yl)-1H-pyrazolo [4,3-b]pyridin-5-yl)pyridin-3-yl)-3-methylbutanamide] | 18.1 | 104
15 | > 10000 | 7 | CN(C)CC(=O)Nc1cncc(-c2ccc3[nH]nc(-c4nc5c(-c6cccc(F)c6)nccc5[nH]4)c3n2)c1 [Compound 969, 2-(Dimethylamino)-N-(5-(3-(4-(3-fluorophenyl)-1H-imidazo[4,5-c]pyridin-2-yl)-1H-pyrazolo[4,3-b]pyridin-5-yl)pyridin-3-yl)acetamide] | 31.8 | 63
16 | > 10000 | 100 | c1cncc(-c2ccc3[nH]nc(-c4nc5c(-c6cccnc6)nccc5[nH]4)c3n2)c1 [Compound 88, 5-(Pyridin-3-yl)-3-(4-(pyridin-3-yl)-1H-imidazo[4,5-c]pyridin-2-yl)-1H-pyrazolo[4,3-b]pyridine] | 20.4 | 70
17 | > 10000 | 10 | CC(C)(C)C(=O)Nc1cncc(-c2ccc3[nH]nc(-c4nc5c(-c6ccc(F)cc6)nccc5[nH]4)c3n2)c1 [Compound 36, N-(5-(3-(4-(4-Fluorophenyl)-1H-imidazo[4,5-c]pyridin-2-yl)-1H-pyrazolo [4,3-b]pyridin-5-yl)pyridin-3-yl)pivalamide] | 0 | 56
18 | > 10000 | 100 | CN1CCN(c2nccc3[nH]c(-c4n[nH]c5ccc(-c6cncc(N)c6)nc45)nc23)CC1 [Compound 227, 5-(3-(4-(4-Methylpiperazin-1-yl)-1H-imidazo[4,5-c]pyridin-2-yl)-1H-pyrazolo[4,3-b]pyridin-5-yl)pyridin-3-amine] | 32.3 | 135
19 | > 10000 | – | CC(C)C(=O)Nc1cncc(-c2ccc3[nH]nc(-c4nc5c(-c6cccnc6)nccc5[nH]4)c3n2)c1 [Compound 93, N-(5-(3-(4-(Pyridin-3-yl)-1H-imidazo[4,5-c]pyridin-2-yl)-1H-pyrazolo[4,3-b]pyridin-5-yl)pyridin-3-yl)isobutyramide] | 25.1 | 32
